One compound from publication PMC11215771 (Journal of Medicinal Chemistry, 2024) can be followed below.

In test [1] the target is T1, hCathepsinD in HEK293T cells (Homo sapiens, UniProt P07339).
T1 construct: EGFP or mCherry (C); host or cells: HEK293T
Put plainly: Staining of transfected HEK293T cells, confocal imaging: Cathepsin D. In kind it is cell-based. On the procedure: (§1) Next, we explored the performance of the new Alexa-C3 compounds in living cells. Because of the rather hydrophilic properties, we exclusively targeted the cell membrane. To prevent intracellular accumulation, we first performed stainings at 4 °C arresting ATP-dependent endocytosis. […] All of the constructs were tagged at the C-terminus with either EGFP or mCherry to visualize subcellular expression. […] With these experiments, we want to exclude that a lack of staining is caused by an impaired accessibility of the protein by Alexa-C3 compounds. […] We then tested samples with BACE1 expression after fixation of the cells with paraformaldehyde (PFA).
(§2) (D) All conjugates were also probed on cells fixed with 4% paraformaldehyde (PFA) for 15 min prior to staining. […] Scale bars represent 5 μm (A–D) and 20 μm (E). […] Samples were excited at 488, 561, and 633 nm, respectively.
(§3) HEK293T cells (ATCC accession number CRL-11268) were maintained in Dulbecco's modified Eagle's medium (Sigma-Aldrich D6046) with 1g/L glucose, supplemented with 10% FCS (Merck) and 1% penicillin/streptomycin (PAA). CHO-K1 cells (ATCC #CCL-61) were maintained in modified phenol red free RPMI-1640 medium (Sigma-Aldrich, R7509), supplemented with 2 mM L-glutamine (Sigma-Aldrich, G7513), and 10% FCS (Merck). Cells were cultured at 37 °C in a 5% CO2 atmosphere. […]

For test [2], the target named is T2, hBACE2 fused to EGFP in HEK293T cells (Homo sapiens, UniProt Q9Y5Z0).
T2 construct: expressed in transfected cells; host or cells: HEK293T
T2 sequence (Q9Y5Z0 63-518): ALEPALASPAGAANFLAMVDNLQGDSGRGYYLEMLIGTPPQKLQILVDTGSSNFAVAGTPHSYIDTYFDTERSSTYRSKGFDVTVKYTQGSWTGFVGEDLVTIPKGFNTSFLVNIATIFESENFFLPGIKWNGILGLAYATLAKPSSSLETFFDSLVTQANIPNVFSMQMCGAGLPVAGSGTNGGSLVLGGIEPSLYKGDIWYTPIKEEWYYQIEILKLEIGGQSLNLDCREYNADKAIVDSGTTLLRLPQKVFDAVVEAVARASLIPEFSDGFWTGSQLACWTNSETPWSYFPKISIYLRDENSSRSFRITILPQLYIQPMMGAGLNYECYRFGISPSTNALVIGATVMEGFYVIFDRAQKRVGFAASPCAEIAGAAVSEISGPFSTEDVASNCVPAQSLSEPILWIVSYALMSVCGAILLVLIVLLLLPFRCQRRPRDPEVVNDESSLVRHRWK
Description: Staining of transfected HEK293T cells, confocal imaging: BACE2. The test is classed as cell-based. As to the method:
as §1, §2, §3

T1 sequence (P07339 65-412): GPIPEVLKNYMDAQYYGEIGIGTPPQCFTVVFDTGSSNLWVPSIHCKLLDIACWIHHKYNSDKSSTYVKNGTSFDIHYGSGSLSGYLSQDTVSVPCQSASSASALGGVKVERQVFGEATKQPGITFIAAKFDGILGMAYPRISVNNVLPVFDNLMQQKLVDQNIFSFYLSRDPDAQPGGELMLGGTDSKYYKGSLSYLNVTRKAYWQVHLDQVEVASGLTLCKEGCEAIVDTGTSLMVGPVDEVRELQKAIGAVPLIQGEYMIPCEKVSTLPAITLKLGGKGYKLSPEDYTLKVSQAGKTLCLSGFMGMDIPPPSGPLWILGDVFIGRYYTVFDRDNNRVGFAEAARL

As for `C[C@@H](NC(=O)c1cc(C(=O)N[C@@H](Cc2ccccc2)[C@H](O)CNC2CC2)cc(N(C)S(=O)(=O)CCCNC(=O)CCCCCC2(C)C(/C=C/C=C/C=C3/N(CCCS(=O)(=O)O)c4ccc(S(=O)(=O)O)cc4C3(C)C)=[N+](CCCS(=O)(=O)[O-])c3ccc(S(=O)(=O)O)cc32)c1)c1ccccc1` (some centres unmarked), the “staining of Cathepsin D” value in test [1] is given as “not labeled”. Also, in test [2], the “staining of BACE2” value is “not labeled”.
